Like-named read-outs stand apart in the source and are kept apart here.
Test system: HCT116 cells
Assay: In vitro cytotoxicity measured by the cell colony formation assay
Assay type: cell-based
Settings: colonies counted after 7 days, read-out: IN VITRO ID 50 (nm) HCT116
Description: (§1) Four hundred cells (HCT116) were plated in 60 mm Petri dishes containing 2.7 mL of medium (modified McCoy's 5a medium containing 10% fetal bovine serum and 100 units/mL penicillin and 100 µg/mL streptomycin). The cells were incubated in a CO2 incubator at 37° C. for 5 h for attachment to the bottom of Petri dishes. The compounds identified in Example 2 were made up fresh in medium at ten times the final concentration, and then 0.3 mL of this stock solution was added to the 2.7 mL of medium in the dish. The cells were then incubated with drugs for 72 h at 37° C. At the end of incubation the drug-containing media were decanted, the dishes were rinsed with 4 mL of Hank's Balance Salt Solution (HBSS), 5 mL of fresh medium was added, and the dishes were returned to the incubator for colony formation. The cell colonies were counted using a colony counter after incubation for 7 days.
as §1, with “Example 7” for “Example 2”
as §1, with “Example 22” for “Example 2”
as §1, with “Example 27” for “Example 2”
Four hundred cells (HCT116) were plated in 60 mm Petri dishes containing 2.7 mL of medium (modified McCoy's 5a medium containing 10% fetal bovine serum and 100 units/mL penicillin and 100 µg/mL streptomycin). The cells were incubated in a CO2 incubator at 37° C. for 5 h for attachment to the bottom of Petri dishes. […]

[1] = HCT116 colony formation, 72 h drug incubation, Example 15, C-7 substituted acetate/C-10 hydroxy taxanes
[2] = HCT116 colony formation, 72 h drug incubation, Example 5, C-7 ester/C-10 hydroxy taxanes
[3] = HCT116 colony formation, 72 h drug incubation, Example 10, C-10 ester/C-7 hydroxy taxanes
[4] = HCT116 cells, 72 h incubation with drug, ID50 = drug concentration producing 50% inhibition of colony formation

SMILES: CCC(C)(C)OC(=O)NC(c1ccco1)C(O)C(=O)OC1CC2(O)C(OC(=O)c3ccccc3)C3C4(OC(C)=O)COC4CC(OC(=O)COC)C3(C)C(=O)C(O)C(=C1C)C2(C)C (stereo not drawn) [Compound 6226, N-Debenzoyl-N-tert-amyloxycarbonyl-3′-desphenyl-3′-(2-furyl)-10-deacetyl-7-methoxyacetyl taxol]
- IC50 [1]: < 1 nM

SMILES: CCC(=O)O[C@H]1C[C@H]2OC[C@@]2(OC(C)=O)C2[C@H](OC(=O)c3ccccc3)[C@]3(O)C[C@H](OC(=O)[C@H](O)[C@@H](NC(=O)OC(C)C)c4ccco4)C(C)=C([C@@H](O)C(=O)[C@@]21C)C3(C)C (stereo partly drawn) [Compound 3444]
- IC50 [2]: < 1 nM

SMILES: CC(=O)O[C@@]12CO[C@@H]1C[C@H](O)[C@@]1(C)C(=O)[C@H](OC(=O)C3CC3)C3=C(C)[C@@H](OC(=O)[C@H](O)[C@H](C=C(C)C)NC(=O)c4ccccc4)C[C@@](O)([C@@H](OC(=O)c4ccccc4)C12)C3(C)C (stereo partly drawn) [Compound 0890]
- IC50 [3]: < 1 nM

SMILES: CCC(=O)O[C@H]1C(=O)[C@@]2(C)C([C@H](OC(=O)c3ccccc3)[C@]3(O)C[C@H](OC(=O)[C@H](O)[C@@H](NC(=O)c4ccccc4)c4ccsc4)C(C)=C1C3(C)C)[C@]1(OC(C)=O)CO[C@@H]1C[C@@H]2O (stereo partly drawn) [Compound 0691]
- IC50 [3]: < 1 nM

SMILES: CC(=O)O[C@@]12CO[C@@H]1C[C@H](OC(=O)COc1ccccc1)[C@@]1(C)C(=O)[C@H](O)C3=C(C)[C@@H](OC(=O)[C@H](O)[C@@H](NC(=O)OC(C)(C)C)c4ccco4)C[C@@](O)([C@@H](OC(=O)c4ccccc4)C12)C3(C)C (stereo partly drawn) [Compound 5616]
- IC50 [1]: < 1 nM

SMILES: CCC(=O)O[C@H]1C[C@H]2OC[C@@]2(OC(C)=O)C2[C@H](OC(=O)c3ccccc3)[C@]3(O)C[C@H](OC(=O)[C@H](O)[C@@H](NC(=O)OCC(C)C)c4ccoc4)C(C)=C([C@@H](O)C(=O)[C@@]21C)C3(C)C (stereo partly drawn) [Compound 4787]
- IC50 [2]: < 10 nM

SMILES: CCOC(=O)O[C@H]1C(=O)[C@@]2(C)C([C@H](OC(=O)c3ccccc3)[C@]3(O)C[C@H](OC(=O)[C@H](O)[C@H](C=C(C)C)NC(=O)OC(C)(C)C)C(C)=C1C3(C)C)[C@]1(OC(C)=O)CO[C@@H]1C[C@@H]2O (stereo partly drawn) [Compound 1788]
- IC50 [4]: < 1 nM

SMILES: CCCC(=O)O[C@H]1C(=O)[C@@]2(C)C([C@H](OC(=O)c3ccccc3)[C@]3(O)C[C@H](OC(=O)[C@H](O)[C@@H](NC(=O)c4cccs4)c4ccco4)C(C)=C1C3(C)C)[C@]1(OC(C)=O)CO[C@@H]1C[C@@H]2O (stereo partly drawn) [Compound 3656]
- IC50 [3]: < 1 nM

SMILES: C/C=C/C(=O)N[C@@H](c1ccsc1)[C@@H](O)C(=O)O[C@H]1C[C@@]2(O)[C@@H](OC(=O)c3ccccc3)C3[C@](C)(C(=O)[C@H](O)C(=C1C)C2(C)C)[C@@H](OC(=O)OC)C[C@H]1OC[C@@]31OC(C)=O (stereo partly drawn) [Compound 4969]
- IC50 [4]: < 1 nM

SMILES: CC(=O)O[C@@]12CO[C@@H]1C[C@H](O)[C@@]1(C)C(=O)[C@H](OC(=O)C3CC3)C3=C(C)[C@@H](OC(=O)[C@H](O)[C@@H](NC(=O)OC(C)(C)C)c4ccccc4)C[C@@](O)([C@@H](OC(=O)c4ccccc4)C12)C3(C)C (stereo partly drawn) [Compound 0882]
- IC50 [3]: < 1 nM

SMILES: CCCC(=O)O[C@H]1C(=O)[C@@]2(C)C([C@H](OC(=O)c3ccccc3)[C@]3(O)C[C@H](OC(=O)[C@H](O)[C@H](C=C(C)C)NC(=O)OC(C)(C)C)C(C)=C1C3(C)C)[C@]1(OC(C)=O)CO[C@@H]1C[C@@H]2O (stereo partly drawn) [Compound 0947]
- IC50 [3]: < 1 nM

SMILES: CCC(=O)O[C@H]1C[C@H]2OC[C@@]2(OC(C)=O)C2[C@H](OC(=O)c3ccccc3)[C@]3(O)C[C@H](OC(=O)[C@H](O)[C@@H](NC(=O)OC(C)(C)CC)c4ccco4)C(C)=C([C@@H](O)C(=O)[C@@]21C)C3(C)C (stereo partly drawn) [Compound 6424]
- IC50 [2]: 21.7 nM

SMILES: COC(=O)O[C@H]1C[C@H]2OC[C@@]2(OC(C)=O)C2[C@H](OC(=O)c3ccccc3)[C@]3(O)C[C@H](OC(=O)[C@H](O)[C@H](C=C(C)C)NC(=O)OC(C)(C)C)C(C)=C([C@@H](O)C(=O)[C@@]21C)C3(C)C (stereo partly drawn) [Compound 4484]
- IC50 [4]: < 1 nM

SMILES: COC(=O)O[C@H]1C[C@H]2OC[C@@]2(OC(C)=O)C2[C@H](OC(=O)c3ccccc3)[C@]3(O)C[C@H](OC(=O)[C@H](O)[C@@H](NC(=O)OC(C)(C)C)c4ccoc4)C(C)=C([C@@H](O)C(=O)[C@@]21C)C3(C)C (stereo partly drawn) [Compound 4434]
- IC50 [4]: < 1 nM

SMILES: CCOC(=O)O[C@H]1C(=O)[C@@]2(C)C([C@H](OC(=O)c3ccccc3)[C@]3(O)C[C@H](OC(=O)[C@H](O)[C@@H](NC(=O)c4ccncc4)c4cccs4)C(C)=C1C3(C)C)[C@]1(OC(C)=O)CO[C@@H]1C[C@@H]2O (stereo partly drawn) [Compound 3393]
- IC50 [4]: > 50 nM

SMILES: CCCC(=O)O[C@H]1C[C@H]2OC[C@@]2(OC(C)=O)C2[C@H](OC(=O)c3ccccc3)[C@]3(O)C[C@H](OC(=O)[C@H](O)[C@@H](NC(=O)OCC(C)C)c4ccco4)C(C)=C([C@@H](O)C(=O)[C@@]21C)C3(C)C (stereo partly drawn) [Compound 4616]
- IC50 [2]: < 1 nM

SMILES: COC(=O)O[C@H]1C[C@H]2OC[C@@]2(OC(C)=O)C2[C@H](OC(=O)c3ccccc3)[C@]3(O)C[C@H](OC(=O)[C@H](O)[C@@H](NC(=O)OC(C)(C)C)C4CC4)C(C)=C([C@@H](O)C(=O)[C@@]21C)C3(C)C (stereo partly drawn) [Compound 4566]
- IC50 [4]: < 1 nM

SMILES: CC(=O)O[C@@]12CO[C@@H]1C[C@H](OC(=O)C(C)C)[C@@]1(C)C(=O)[C@H](O)C3=C(C)[C@@H](OC(=O)[C@H](O)[C@@H](NC(=O)C(C)C)c4ccco4)C[C@@](O)([C@@H](OC(=O)c4ccccc4)C12)C3(C)C (stereo partly drawn) [Compound 6121]
- IC50 [2]: < 10 nM

SMILES: CCOC(=O)N[C@@H](c1ccco1)[C@@H](O)C(=O)O[C@H]1C[C@@]2(O)[C@@H](OC(=O)c3ccccc3)C3[C@](C)(C(=O)[C@H](O)C(=C1C)C2(C)C)[C@@H](OC(=O)CC)C[C@H]1OC[C@@]31OC(C)=O (stereo partly drawn) [Compound 3611]
- IC50 [2]: < 1 nM

SMILES: CCC(=O)O[C@H]1C[C@H]2OC[C@@]2(OC(C)=O)C2[C@H](OC(=O)c3ccccc3)[C@]3(O)C[C@H](OC(=O)[C@H](O)[C@@H](NC(=O)OC=C(C)C)c4ccco4)C(C)=C([C@@H](O)C(=O)[C@@]21C)C3(C)C (stereo partly drawn) [Compound 6171]
- IC50 [2]: < 10 nM

SMILES: CCNC(=O)O[C@H]1C(=O)[C@@]2(C)C([C@H](OC(=O)c3ccccc3)[C@]3(O)C[C@H](OC(=O)[C@H](O)[C@H](C=C(C)C)NC(=O)OC(C)(C)C)C(C)=C1C3(C)C)[C@]1(OC(C)=O)CO[C@@H]1C[C@@H]2O (stereo partly drawn) [Compound 2686]
- IC50 (HCT116 cells, colony formation, 72 h incubation with drug, ID50 = drug concentration producing 50% inhibition of colony formation): < 1 nM

SMILES: CCC(=O)O[C@H]1C(=O)[C@@]2(C)C([C@H](OC(=O)c3ccccc3)[C@]3(O)C[C@H](OC(=O)[C@H](O)[C@@H](NC(=O)OC(C)(C)C)c4cccnc4)C(C)=C1C3(C)C)[C@]1(OC(C)=O)CO[C@@H]1C[C@@H]2O (stereo partly drawn) [Compound 0517]
- IC50 [3]: < 10 nM

SMILES: CCCC(=O)O[C@H]1C[C@H]2OC[C@@]2(OC(C)=O)C2[C@H](OC(=O)c3ccccc3)[C@]3(O)C[C@H](OC(=O)[C@H](O)[C@@H](NC(=O)OC(C)(C)C)c4cccs4)C(C)=C([C@@H](O)C(=O)[C@@]21C)C3(C)C (stereo partly drawn) [Compound 4256]
- IC50 [2]: < 1 nM

SMILES: CC(=O)OC12COC1CC(O)C1(C)C(=O)C(OC(=O)c3cccs3)C3=C(C)C(OC(=O)C(O)C(C=C(C)C)NC(=O)OC(C)(C)C)CC(O)(C(OC(=O)c4ccccc4)C21)C3(C)C (stereo not drawn) [Compound 1879]
- IC50 [3]: < 10 nM

— patent publication US6638973B2, “Taxane formulations” (FSU Research Foundation, Inc., priority 2000, dated 2003)
